Laboratory results as given in patent US20020168325A1, “NOS inhibitors for treatment of wrinkles” (priority 2001, published 2002).
“Also recorded” adds a separate entry of the source.

Assays:
[1] = test system: ears of female Balb/C mice; test: Ear swelling response (skin irritation from topical application); format: in vivo
Description: To examine the potential for irritation from topical application of a NOS inhibitor to the skin, measurements of ear swelling response were performed as follows: The thickness of both ears of each of three female Balb/C mice, 10 weeks of age, was measured with a thickness gage (Mitsutoyo Corp.). Ten microliters of 1% L-NAME (L-N^G-nitro-arginine methyl ester) in 70% ethanol in water was applied to each right ear, and 10 microliters of 70% ethanol in water was applied to each left ear as a control. Ear thickness was monitored over two consecutive days following administration of the solutions.

[2] = test system: back skin of mice (HR-1 hairless strain); test: Wrinkle formation caused by UVB exposure, analysis of back skin replicas (Wrinkle Analyzer 3D Pro); format: in vivo
Description: The effect of a compound on the formation or appearance of wrinkles can be evaluated qualitatively, e.g., by visual inspection, or quantitatively, e.g., by computer assisted measurements of wrinkle morphology. Preferably, wrinkle morphology is quantitatively analyzed. Examples of quantitative methods for measuring wrinkles include, but are not limited to, the optical cut technique employing a laser beam, as proposed by Hoshino (1992) Pixel 45:121, herein incorporated by reference; or methods which analyze three-dimensional skin replicas, e.g., the Shiseido Wrinkle Analyzer 3D Pro system (Takasu et al. (1996) J Soc Cosmet Chem Japan 29:394-405; Japanese Published Patent Application No. 07-113623, published May 2, 1995 (corresponds to U.S. patent application Ser. No. 08/364,346)). The SILFLO (Flexico Development Ltd.) system or a similar system can be used to take a replica of the skin. Irregularities on the surface of the skin replica, i.e., wrinkles, are analyzed, e.g., with the Shiseido Wrinkle Analyzer 3D Pro or a similar system, to provide three-dimensional shape data from the heights at points on a two-dimensional plane corresponding to the skin. According to the three-dimensional data, the length, width, depth, area, and volume of each wrinkle is calculated. According to the parameters for regular and fine wrinkles described herein, different classes of wrinkles, including the subclasses of regular and fine wrinkles, can thus be individually recognized and scored.
To examine the effect of L-NAME on wrinkle formation, wrinkle measurements experiments were performed on the back skin of mice (HR-1 hairless strain, female, 5 weeks of age, n=3) by taking and analyzing skin replicas.
Mice were exposed to UVB irradiation three times a week for ten weeks beginning with 0.3mW/cm^2. The total exposure was 4.662J/cm^2. 100 microliters of 1% L-NAME in 70% ethanol, or 70% ethanol as a control, was applied after each UVB irradiation. Three days after the final UVB irradiation, skin replicas of the dorsal area were taken by means of SILFLO (Flexico Development Ltd.). Replicas were evaluated by the Wrinkle Analyzer 3D Pro developed by Shiseido (essentially as described in Takasu et al. (1996) J Soc Cosmet Chem Japan 29:394-405). Wrinkdle volume and width of regular and fine wrinkles was calculated through three-dimensional data.

[3] = UVB three times a week for ten weeks, 100 microliters of 1% L-NAME in 70% ethanol after each irradiation, replicas three days after final UVB

With `COC(=O)[C@@H](N)CCCNC(=N)N[N+](=O)[O-]` [L-NAME, L-N^G-nitro-arginine methyl ester] the “Difference in ear thickness between control and treated ears” value ([1]; 1% L-NAME in 70% ethanol vs 70% ethanol control, over two days) was “no statistically significant difference in ear thickness”, the “Skin inflammation / other signs of irritation (redness, flaking)” value ([1]; 1% L-NAME in 70% ethanol, topical on ear) was “did not cause skin inflammation; also recorded: no other signs of skin irritation or inflammation” and the “Ear thickness DAY 0, AVE ± SD” value ([1]; Day 0, right ears, 10 microliters of 1% L-NAME in 70% ethanol topical, three female Balb/C mice) was 26.33 ± 0.58 × 0.01 mm. The “Ear thickness DAY 1, AVE ± SD” value ([1]; Day 1 after application, right ears, 10 microliters of 1% L-NAME in 70% ethanol topical) was 25.33 ± 0.58 × 0.01 mm, the “Ear thickness DAY 2, AVE ± SD” value ([1]; Day 2 after application, right ears, 10 microliters of 1% L-NAME in 70% ethanol topical) was 26.33 ± 0.58 × 0.01 mm and the “Effect on fine wrinkle formation caused by UVB exposure” value ([2]; 1% L-NAME in 70% ethanol on back skin of mice, compared to control mice) was “prevented the formation of fine wrinkles; also recorded: reduction in fine wrinkles”. The “Wrinkle volume, fine wrinkles” value [2, 3] was 175,295 pixels, the “Wrinkle volume, regular wrinkles” value [2, 3] was 896,863 pixels and the “Wrinkle volume, total (regular + fine)” value [2, 3] was 1,072,158 pixels.
